Source: article PMC5182133 (Cell chemical biology, 2016)

What was measured:
[1] = test system: CAL-51 shH6PD cells; assay: Cell viability in CAL-51 shNT vs shH6PD cells; assay type: cell-based; settings: CAL-51 shH6PD vs shNT, 5 d
[2] = molecular target: T1, H6PD (Homo sapiens, UniProt O95479); assay: Affinity matrix pulldown and immunoblot for H6PD; assay type: binding; settings: CAL-51 lysate; competed with 20 μM free rucaparib
T1 sequence (O95479 20-791): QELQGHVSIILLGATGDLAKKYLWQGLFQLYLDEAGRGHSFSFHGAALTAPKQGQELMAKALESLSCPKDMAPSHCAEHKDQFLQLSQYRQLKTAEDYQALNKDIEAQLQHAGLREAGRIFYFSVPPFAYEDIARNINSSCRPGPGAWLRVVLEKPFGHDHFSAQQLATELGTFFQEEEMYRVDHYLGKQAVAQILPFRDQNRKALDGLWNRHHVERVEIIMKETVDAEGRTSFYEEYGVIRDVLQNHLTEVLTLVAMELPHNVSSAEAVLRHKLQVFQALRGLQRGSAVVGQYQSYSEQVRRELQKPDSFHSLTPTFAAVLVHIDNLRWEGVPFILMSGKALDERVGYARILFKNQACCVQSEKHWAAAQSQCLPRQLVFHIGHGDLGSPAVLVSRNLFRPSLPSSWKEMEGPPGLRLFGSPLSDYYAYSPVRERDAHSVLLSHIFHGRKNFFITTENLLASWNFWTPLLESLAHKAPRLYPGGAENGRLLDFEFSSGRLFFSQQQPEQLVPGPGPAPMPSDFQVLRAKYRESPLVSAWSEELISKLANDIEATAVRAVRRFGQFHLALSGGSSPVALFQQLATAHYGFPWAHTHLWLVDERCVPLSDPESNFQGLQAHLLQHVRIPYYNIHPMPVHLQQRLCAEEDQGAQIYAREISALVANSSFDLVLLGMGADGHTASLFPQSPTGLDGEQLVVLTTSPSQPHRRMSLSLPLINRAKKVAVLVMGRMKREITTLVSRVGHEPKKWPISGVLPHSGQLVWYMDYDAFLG

[3] = molecular target: T2, DCK (Homo sapiens, UniProt P27707); assay: Affinity matrix pulldown and immunoblot for DCK; assay type: binding; settings: CAL-51 lysate
T2 sequence (P27707 whole entry): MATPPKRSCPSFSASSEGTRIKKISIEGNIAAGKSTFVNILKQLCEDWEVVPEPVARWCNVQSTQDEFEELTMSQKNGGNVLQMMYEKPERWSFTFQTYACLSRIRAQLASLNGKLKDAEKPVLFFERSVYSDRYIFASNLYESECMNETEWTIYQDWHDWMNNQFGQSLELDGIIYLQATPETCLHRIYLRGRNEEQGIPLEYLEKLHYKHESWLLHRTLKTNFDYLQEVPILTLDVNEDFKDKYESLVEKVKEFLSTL

[4] = reach as high as; ref Murray et al., 2014; cited from earlier work
[5] = test system: CAL-51 H6PD-OE cells; assay: Cell viability in CAL-51 parental vs H6PD-overexpressing cells; assay type: cell-based; settings: CAL-51 H6PD-OE vs parental, 5 d
[6] = test system: H322 cells; assay: H322 cell viability; assay type: cell-based; settings: 5 d, CellTiterGlo
[7] = test system: CAL-51 cells; assay: Immunoblot of apoptosis markers in CAL-51 cells after PARPi treatment; assay type: cell-based; settings: 48 h, 40 μM PARPi
[8] = ref Plummer et al., 2008; cited from earlier work
[9] = molecular target: T2, DCK; settings: compared to the other PARPi
[10] = test system: A549 cells; settings: 2 μM cytarabine, 3 days
[11] = ref Haura et al., 2010; cited from earlier work
[12] = molecular target: T1, H6PD; settings: read-out: IC50 for H6PD inhibition (reported); ref Tagawa et al., 2015; cited from earlier work

O=C(c1cc(Cc2n[nH]c(=O)c3ccccc23)ccc1F)N1CCN(C(=O)C2CC2)CC1 [olaparib]
Effect of stable H6PD knockdown on potency (cell viability) [1]: increased the potency

CN(CCCN)Cc1ccc(-c2[nH]c3cc(F)cc4c3c2CCNC4=O)cc1 [c-rucaparib]
Enrichment of H6PD by affinity matrix (immunoblot) [2]: specifically enriched

NCCCN1CCC[C@@H](c2ccc(-n3cc4cccc(C(N)=O)c4n3)cc2)C1 [c-niraparib]
Enrichment of DCK by affinity matrix (immunoblot) [3]: confirmed

Cn1ncnc1[C@H]1c2n[nH]c(=O)c3cc(F)cc(c23)N[C@@H]1c1ccc(F)cc1 [talazoparib]
Effect of stable H6PD knockdown on potency (cell viability) [1]: increased the potency

CNCc1ccc(-c2[nH]c3cc(F)cc4c3c2CCNC4=O)cc1 [rucaparib]
Concentrations in murine tumors [4]: ~ 20 μM | Effect of stable H6PD overexpression on IC50 for inhibition of cell viability [5]: increased the IC50 | Viability of H322 cells at high concentrations compared to other PARPi [6]: decreased more | PARP1 and caspase-3 cleavage compared to the other PARPi [7]: increased | Plasma levels in patients [8]: 2700 nM

NC(=O)c1cccc2cn(-c3ccc([C@@H]4CCCNC4)cc3)nc12 [niraparib]
Inhibition of DCK activity in cell-free extracts [9]: specific inhibition | Rescue of A549 cells from cytarabine toxicity ([10]; DI-39 as positive control): dose-dependently rescued | Concentrations needed to observe reduced cytarabine toxicity ([10]; A549 cells): 20 to 40 µM

COc1cc2ncnc(Nc3ccc(F)c(Cl)c3)c2cc1OCCCN1CCOCC1 [gefitinib]
Drug concentration in human tumor tissue relative to plasma levels [11]: up to 40 fold

O=c1c(-c2ccc(O)cc2)coc2cc(O)cc(O)c12 [genistein]
IC50 [12]: > 50 µM
